The text below walks through data of ChEMBL document CHEMBL1649271, “In vitro sensitivity testing of Leishmania clinical field isolates: preconditioning of promastigotes enhances infectivity for macrophage host cells” (Antimicrob Agents Chemother, 2009).

A word on the IC50: it is the concentration needed to halve the response being measured.

Experiment [1] relates to Leishmania donovani. The experiment in a line: Antileishmanial activity against Leishmania donovani BPK274 amastigotes infected in Swiss mouse primary peritoneal mouse macrophages assessed as reduction of total parasite burden after 5 days. It counts as functional, organism-based.
Experiment [2] concerns Leishmania donovani. The experiment in a line: Antileishmanial activity against Leishmania donovani BPK177 amastigotes infected in Swiss mouse primary peritoneal mouse macrophages assessed as reduction of total parasite burden after 5 days. The class given is functional, organism-based.
The subject of experiment [3] is Leishmania guyanensis. The experiment in a line: Antileishmanial activity against Leishmania guyanensis PER080 amastigotes infected in Swiss mouse primary peritoneal mouse macrophages assessed as reduction of total parasite burden after 5 days. It counts as functional, organism-based.
Experiment [4] deals with Leishmania guyanensis. In words: Antileishmanial activity against Leishmania guyanensis PER106 amastigotes infected in Swiss mouse primary peritoneal mouse macrophages assessed as reduction of total parasite burden after 5 days. The class given is functional, organism-based.
Experiment [5] relates to Leishmania braziliensis. The experiment in a line: Antileishmanial activity against Leishmania braziliensis PER002cl amastigotes infected in Swiss mouse primary peritoneal mouse macrophages assessed as reduction of total parasite burden after 5 days. The class given is functional, organism-based.
In experiment [6] the test system is Leishmania guyanensis. In words: Antileishmanial activity against Leishmania guyanensis PER008 amastigotes infected in Swiss mouse primary peritoneal mouse macrophages assessed as reduction of total parasite burden after 5 days. It counts as functional, organism-based.
The test system of experiment [7] is Leishmania guyanensis. The experiment in a line: Antileishmanial activity against Leishmania guyanensis PER054 amastigotes infected in Swiss mouse primary peritoneal mouse macrophages assessed as reduction of total parasite burden after 5 days. It counts as functional, organism-based.
Experiment [8] relates to Leishmania donovani. In words: Antileishmanial activity against Leishmania donovani BPK206cl amastigotes infected in Swiss mouse primary peritoneal mouse macrophages assessed as reduction of total parasite burden after 5 days. The class given is functional, organism-based.
The subject of experiment [9] is Leishmania donovani. In words: Antileishmanial activity against Leishmania donovani BPK091 amastigotes infected in Swiss mouse primary peritoneal mouse macrophages assessed as reduction of total parasite burden after 5 days. It counts as functional, organism-based.
Experiment [10] relates to Leishmania guyanensis. In words: Antileishmanial activity against Leishmania guyanensis PER072 amastigotes infected in Swiss mouse primary peritoneal mouse macrophages assessed as reduction of total parasite burden after 5 days. The class given is functional, organism-based.
For experiment [11], the system named is Leishmania donovani. In words: Antileishmanial activity against Leishmania donovani BPK294 amastigotes infected in Swiss mouse primary peritoneal mouse macrophages assessed as reduction of total parasite burden after 5 days. It counts as functional, organism-based.
The subject of experiment [12] is Leishmania donovani. The experiment in a line: Antileishmanial activity against Leishmania donovani BPK190 amastigotes infected in Swiss mouse primary peritoneal mouse macrophages assessed as reduction of total parasite burden after 5 days. The class given is functional, organism-based.
For experiment [13], the system named is Leishmania donovani. The experiment in a line: Antileishmanial activity against Leishmania donovani BPK190cl amastigotes infected in Swiss mouse primary peritoneal mouse macrophages assessed as reduction of total parasite burden after 5 days. It counts as functional, organism-based.
The subject of experiment [14] is Leishmania braziliensis. In words: Antileishmanial activity against Leishmania braziliensis PER005cl amastigotes infected in Swiss mouse primary peritoneal mouse macrophages assessed as reduction of total parasite burden after 5 days. It counts as functional, organism-based.
Experiment [15] deals with Leishmania donovani. In words: Antileishmanial activity against Leishmania donovani BPK178 amastigotes infected in Swiss mouse primary peritoneal mouse macrophages assessed as reduction of total parasite burden after 5 days. It counts as functional, organism-based.
The subject of experiment [16] is Leishmania donovani. The experiment in a line: Antileishmanial activity against Leishmania donovani BPK298 amastigotes infected in Swiss mouse primary peritoneal mouse macrophages assessed as reduction of total parasite burden after 5 days. It counts as functional, organism-based.
Experiment [17] has as its system Leishmania donovani. The experiment in a line: Antileishmanial activity against Leishmania donovani BPK043 amastigotes infected in Swiss mouse primary peritoneal mouse macrophages assessed as reduction of total parasite burden after 5 days. It counts as functional, organism-based.
Experiment [18] deals with Leishmania donovani. The experiment in a line: Antileishmanial activity against Leishmania donovani BPK206 amastigotes infected in Swiss mouse primary peritoneal mouse macrophages assessed as reduction of total parasite burden after 5 days. The class given is functional, organism-based.
The test system of experiment [19] is Leishmania donovani. The experiment in a line: Activity index, ratio of IC50 for Leishmania donovani BPK177 to IC50 for Leishmania donovani BPK043. It counts as functional, organism-based.
The test system of experiment [20] is Leishmania guyanensis. In words: Activity index, ratio of IC50 for Leishmania guyanensis PER072 to IC50 for Leishmania guyanensis PER106. It counts as functional, organism-based.
Experiment [21] relates to Leishmania donovani. In words: Activity index, ratio of IC50 for Leishmania donovani BPK294 to IC50 for Leishmania donovani BPK043. It counts as functional, organism-based.
Experiment [22] deals with Leishmania donovani. The experiment in a line: Activity index, ratio of IC50 for Leishmania donovani BPK274 to IC50 for Leishmania donovani BPK043. The class given is functional, organism-based.
Experiment [23] is described as follows: Activity index, ratio of IC50 for Leishmania braziliensis PER005cl to IC50 for Leishmania guyanensis PER106. The class given is functional.
For experiment [24], the system named is Leishmania guyanensis. The experiment in a line: Activity index, ratio of IC50 for Leishmania guyanensis PER008 to IC50 for Leishmania guyanensis PER106. The class given is functional, organism-based.
The test system of experiment [25] is Leishmania donovani. The experiment in a line: Activity index, ratio of IC50 for Leishmania donovani BPK206 to IC50 for Leishmania donovani BPK043. The class given is functional, organism-based.
The test system of experiment [26] is Leishmania guyanensis. The experiment in a line: Activity index, ratio of IC50 for Leishmania guyanensis PER080 to IC50 for Leishmania guyanensis PER106. The class given is functional, organism-based.
The nature of experiment [27]: Activity index, ratio of IC50 for Leishmania braziliensis PER002cl to IC50 for Leishmania guyanensis PER106. The class given is functional.
For experiment [28], the system named is Leishmania donovani. The experiment in a line: Activity index, ratio of IC50 for Leishmania donovani BPK091 to IC50 for Leishmania donovani BPK043. The class given is functional, organism-based.
In experiment [29] the test system is Leishmania guyanensis. In words: Activity index, ratio of IC50 for Leishmania guyanensis PER054 to IC50 for Leishmania guyanensis PER106. The class given is functional, organism-based.
Experiment [30] deals with Leishmania donovani. In words: Activity index, ratio of IC50 for Leishmania donovani BPK206cl to IC50 for Leishmania donovani BPK043. It counts as functional, organism-based.
The subject of experiment [31] is Leishmania donovani. In words: Activity index, ratio of IC50 for Leishmania donovani BPK190 to IC50 for Leishmania donovani BPK043. It counts as functional, organism-based.
Experiment [32] deals with Leishmania donovani. In words: Activity index, ratio of IC50 for Leishmania donovani BPK298 to IC50 for Leishmania donovani BPK043. The class given is functional, organism-based.
Experiment [33] deals with Leishmania donovani. In words: Activity index, ratio of IC50 for Leishmania donovani BPK190cl to IC50 for Leishmania donovani BPK043. It counts as functional, organism-based.
For experiment [34], the system named is Leishmania donovani. In words: Activity index, ratio of IC50 for Leishmania donovani BPK178 to IC50 for Leishmania donovani BPK043. It counts as functional, organism-based.

As for `CCCCCCCCCCCCCCCCOP(=O)([O-])OCC[N+](C)(C)C` [MILTEFOSINE], the concentration for half-maximal inhibition (IC50) turned out to be 7.1 µM with Leishmania donovani [1] (Leishmania donovani, BPK274, 120 h, read-out: IC50); 2 µM with Leishmania donovani [2] (Leishmania donovani, BPK177, 120 h, read-out: IC50); 7.5 µM with Leishmania guyanensis [3] (Leishmania guyanensis, PER080, 120 h, read-out: IC50); 10 µM in the experiment on Leishmania guyanensis [4] (Leishmania guyanensis, PER106, 120 h, read-out: IC50); 10.3 µM in the experiment with Leishmania braziliensis [5] (Leishmania braziliensis, PER002cl, 120 h, read-out: IC50); 5 µM with Leishmania guyanensis [6] (Leishmania guyanensis, PER008, 120 h, read-out: IC50). The IC50 in the experiment with Leishmania guyanensis [7] (Leishmania guyanensis, PER054, 120 h, read-out: IC50) turned out to be 9.5 µM; with Leishmania donovani [8] (Leishmania donovani, BPK206cl, 120 h, read-out: IC50) it was 2 µM; in the experiment on Leishmania donovani [9] (Leishmania donovani, BPK091, 120 h, read-out: IC50), 3.2 µM; in the experiment with Leishmania guyanensis [10] (Leishmania guyanensis, PER072, 120 h, read-out: IC50) it was 10 µM; in the experiment on Leishmania donovani [11] (Leishmania donovani, BPK294, 120 h, read-out: IC50), 3 µM; in the experiment on Leishmania donovani [12] (Leishmania donovani, BPK190, 120 h, read-out: IC50) it was 4.5 µM. Also, the IC50 with Leishmania donovani [13] (Leishmania donovani, BPK190cl, 120 h, read-out: IC50) came to 3 µM; with Leishmania braziliensis [14] (Leishmania braziliensis, PER005cl, 120 h, read-out: IC50), 10 µM; with Leishmania donovani [15] (Leishmania donovani, BPK178, 120 h, read-out: IC50), 5.5 µM; in the experiment on Leishmania donovani [16] (Leishmania donovani, BPK298, 120 h, read-out: IC50), 3.4 µM; with Leishmania donovani [17] (Leishmania donovani, BPK043, 120 h, read-out: IC50), 1.5 µM; in the experiment on Leishmania donovani [18] (Leishmania donovani, BPK206, 120 h, read-out: IC50), 4 µM.
Turning to “POTASSIUM ANTIMONYL TARTRATE TRIHYDRATE [listing 1 of 2 here]”, the IC50 in the experiment on Leishmania donovani [1] worked out at 16.2 µg/mL; with Leishmania donovani [2], 32 µg/mL; in the experiment with Leishmania guyanensis [3], 14.5 µg/mL; in the experiment on Leishmania guyanensis [4] it was 12 µg/mL; in the experiment on Leishmania braziliensis [5] it was 13.5 µg/mL; in the experiment on Leishmania guyanensis [6], 18 µg/mL. Moreover, the IC50 came out at 18 µg/mL with Leishmania guyanensis [7]; 5 µg/mL in the experiment with Leishmania donovani [8]; 24.2 µg/mL in the experiment on Leishmania donovani [9]; 19 µg/mL in the experiment on Leishmania guyanensis [10]; 6 µg/mL in the experiment on Leishmania donovani [11]; 27.3 µg/mL with Leishmania donovani [12]. Besides, the IC50 in the experiment with Leishmania donovani [13] amounted to 24 µg/mL; in the experiment on Leishmania braziliensis [14], 25 µg/mL; in the experiment on Leishmania donovani [15] it was 21.8 µg/mL; with Leishmania donovani [16] it was 12 µg/mL; with Leishmania donovani [17], 6 µg/mL; in the experiment on Leishmania donovani [18], 11 µg/mL.
Regarding “POTASSIUM ANTIMONYL TARTRATE TRIHYDRATE [listing 2 of 2 here]”, the Ratio IC50 in the experiment with Leishmania donovani [19] worked out at 5.3; in the experiment on Leishmania guyanensis [20], 1.6; in the experiment with Leishmania donovani [21], 1; in the experiment on Leishmania donovani [22] it was 2.7; in [23] it was 2.4; with Leishmania guyanensis [24], 1.6. The Ratio IC50 in the experiment with Leishmania donovani [25] is 1.8; with Leishmania guyanensis [26] it was 1.4; in experiment [27], 1.3; with Leishmania donovani [28] it was 3.9; with Leishmania guyanensis [29], 1.6; with Leishmania donovani [30], 0.8. Besides, the Ratio IC50 in the experiment with Leishmania donovani [31] was 4.5; in the experiment on Leishmania donovani [32], 2; in the experiment with Leishmania donovani [33], 4; in the experiment on Leishmania donovani [34], 3.6.
Take sodium stibogluconate: the Ratio IC50 came out at 6.6 in the experiment on Leishmania donovani [19]; 6 in the experiment on Leishmania guyanensis [20]; 1.5 with Leishmania donovani [21]; 3.2 in the experiment with Leishmania donovani [22]; 5.8 in experiment [23]; 3.2 in the experiment on Leishmania guyanensis [24]. The Ratio IC50 is 3.6 in the experiment on Leishmania donovani [25]; 2.5 with Leishmania guyanensis [26]; 4.5 in experiment [27]; 3.2 in the experiment with Leishmania donovani [28]; 4 in the experiment on Leishmania guyanensis [29]; 5.5 in the experiment on Leishmania donovani [30]. In addition, the Ratio IC50 in the experiment with Leishmania donovani [31] stood at 6.6; in the experiment with Leishmania donovani [32], 1.9; with Leishmania donovani [33], 4.2; with Leishmania donovani [34] it was 3.1.
